Some test systems named below: U251 CNS; SR leukemia; OVCAR-4 ovarian; KM12 colon; OVCAR-8 ovarian; NCI-H23 lung; HCC-2998 colon; NCI-H226 lung; MDA-MB-231 breast; DU-145 prostate.
What all share (assay): NCI-60 cell line screen, 48 h

Among the data in PubChem BioAssay (NCI) are TGI and GI50 values, retold here.

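Five concentrations, 48 hours, 96-well plates. At the GI50, growth is halved. TGI: concentration producing complete growth inhibition.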

As to `CCCCCCCCCCCCCCCc1nc(SCC(=O)O)n[nH]1`, the TGI in the assay with U251 CNS was 81.2 µM; in the assay with SR leukemia it was greater than 100 µM; in the assay with OVCAR-4 ovarian it was greater than 100 µM; with KM12 colon it was greater than 100 µM; with OVCAR-8 ovarian, greater than 100 µM; in the assay on NCI-H23 lung, greater than 100 µM. The TGI in the assay on HCC-2998 colon was greater than 100 µM.
In the case of `C[C@]12CC[C@H](O)CC1CCC[C@@H]2O` (stereo partly drawn), the TGI in the assay on U251 CNS, in the assay with OVCAR-4 ovarian, in the assay on KM12 colon, with OVCAR-8 ovarian, in the assay with NCI-H23 lung and in the assay on HCC-2998 colon was greater than 100 µM in each case.
On to `Nc1c(-c2ccc(-c3c(N)[n+]([O-])c4ccccc4[n+]3[O-])cc2)[n+]([O-])c2ccccc2[n+]1[O-]`, for which the TGI in the assay with NCI-H226 lung is 45 µM; with U251 CNS, 39.6 µM; with OVCAR-4 ovarian, 35.9 µM; with KM12 colon, 23.6 µM; with OVCAR-8 ovarian, greater than 100 µM; in the assay with NCI-H23 lung it was 21.1 µM. The same compound registered a TGI in the assay on HCC-2998 colon of 29.6 µM.
Consider `O=C(NCCOCCO)c1ccc(O)cc1`, for which the TGI in the assay on U251 CNS, with OVCAR-8 ovarian and in the assay with NCI-H23 lung was greater than 100 µM each time.
Take `O=C1OC(/C=C/c2ccccc2)C(=O)C1=O` (stereo not drawn): the TGI in the assay with NCI-H226 lung, in the assay on U251 CNS, with OVCAR-4 ovarian, in the assay with KM12 colon, with NCI-H23 lung and with HCC-2998 colon was greater than 100 µM throughout.
As to `NCCCSCC(=O)O`, the TGI in the assay with NCI-H226 lung, with U251 CNS, in the assay with OVCAR-4 ovarian, in the assay with KM12 colon, in the assay with OVCAR-8 ovarian and with NCI-H23 lung was greater than 100 µM throughout. Moreover, the TGI in the assay with HCC-2998 colon is greater than 100 µM.
In the case of `Cn1c(=O)ccc2cc(C(=O)c3ccccc3)ccc21`, the TGI with NCI-H226 lung was 99.7 µM; in the assay on U251 CNS it was greater than 100 µM; in the assay on OVCAR-4 ovarian it was greater than 100 µM; with KM12 colon, greater than 100 µM; in the assay with OVCAR-8 ovarian it was greater than 100 µM; in the assay on NCI-H23 lung, greater than 100 µM. Also, in the assay with HCC-2998 colon, the TGI was greater than 100 µM.
As for `Cn1c(=O)c2nc3sc4ccccc4c(=N)n3c2n(C)c1=O`, the TGI in the assay on NCI-H226 lung, in the assay with SR leukemia, in the assay on OVCAR-4 ovarian, in the assay with KM12 colon, in the assay with OVCAR-8 ovarian and with NCI-H23 lung was greater than 100 µM in each case. This compound also came in with a TGI with HCC-2998 colon greater than 100 µM.
For the compound `CC(=O)Oc1cc(OC(C)=O)c(OC(C)=O)c2c1CC1C(=O)C3(CCc4ccccc43)C(=O)C1C2` (stereo not drawn), the TGI in the assay on U251 CNS is 29.2 µM; in the assay with OVCAR-4 ovarian, 24.1 µM; in the assay on OVCAR-8 ovarian it was 36.7 µM; in the assay with NCI-H23 lung, 40.2 µM; with HCC-2998 colon, 25.2 µM.
Consider `COc1cccc(/C=N/[N-]C(N)=O)c1[O-].[Cu+2].c1ccncc1`, for which the TGI was determined as 44.6 µM with NCI-H226 lung; 32.2 µM with U251 CNS; 56.2 µM in the assay on OVCAR-4 ovarian; 35.9 µM with KM12 colon; 86.1 µM in the assay with OVCAR-8 ovarian; 45.8 µM in the assay with NCI-H23 lung. In the assay with HCC-2998 colon, this compound displayed a TGI greater than 100 µM.
`COC(=O)C1=CCS(=O)(=O)C1`: the TGI in the assay with NCI-H226 lung, in the assay on OVCAR-4 ovarian, in the assay with KM12 colon, in the assay with OVCAR-8 ovarian, in the assay on NCI-H23 lung and in the assay on HCC-2998 colon was greater than 100 µM in each case.
In the case of `OC1/C(=C/c2ccccc2)CNC/C1=C\c1ccccc1` (stereo not drawn), the TGI in the assay with U251 CNS, in the assay on SR leukemia, with OVCAR-4 ovarian, in the assay with KM12 colon, with OVCAR-8 ovarian and in the assay with HCC-2998 colon was greater than 100 µM each time.
For `O=c1cc(/C=C/c2ccccc2)c2ccc(O/C(=C\c3ccccc3)c3nc4ccccc4c(=O)o3)cc2o1`, the TGI with U251 CNS was greater than 100 µM; in the assay on OVCAR-4 ovarian it was greater than 100 µM; in the assay with KM12 colon, greater than 100 µM; with OVCAR-8 ovarian it was greater than 100 µM; with NCI-H23 lung, 28.7 µM; in the assay with HCC-2998 colon, greater than 100 µM.
For the compound `OC1OC2COC(c3ccccc3)OC2C(O)C1O` (stereo not drawn), the TGI with NCI-H226 lung, in the assay with U251 CNS, in the assay with OVCAR-4 ovarian, with KM12 colon, in the assay on OVCAR-8 ovarian and in the assay with NCI-H23 lung was greater than 100 µM throughout. In the assay on HCC-2998 colon, this compound yielded a TGI greater than 100 µM.
With `CC12CCC(C)(c3cc(O)c(O)cc31)c1cc(O)c(O)cc12`, the TGI turned out to be 28.7 µM in the assay with OVCAR-4 ovarian; 32.7 µM in the assay on KM12 colon; 57.9 µM in the assay with OVCAR-8 ovarian; 75.5 µM with NCI-H23 lung; 33.6 µM in the assay with HCC-2998 colon.
Consider `COc1cc2c(cc1OC)-c1c(c3ccc([N+](=O)[O-])cc3c(=O)n1CCCBr)C2=O`, for which the GI50 was 96.4 µM with MDA-MB-231 breast; 22.7 µM in the assay with NCI-H226 lung; 5.14 µM with U251 CNS; 24.5 µM in the assay on DU-145 prostate; 34.1 µM in the assay with OVCAR-4 ovarian; 29.8 µM with KM12 colon. The GI50 with OVCAR-8 ovarian is 38.5 µM; in the assay on NCI-H23 lung it was 3.32 µM; in the assay on HCC-2998 colon, 59.7 µM. The TGI is greater than 100 µM in the assay with MDA-MB-231 breast; 85.1 µM in the assay on NCI-H226 lung; greater than 100 µM in the assay with U251 CNS; greater than 100 µM in the assay on DU-145 prostate; greater than 100 µM in the assay on OVCAR-4 ovarian; greater than 100 µM in the assay with KM12 colon. Besides, the values for the TGI with OVCAR-8 ovarian, with NCI-H23 lung and with HCC-2998 colon were greater than 100 µM, 67.5 µM and greater than 100 µM, respectively.
Regarding `CCC1(O)CC(c2ccccc2)N(C)C(c2ccccc2)C1` (stereo not drawn), the TGI with NCI-H226 lung, with U251 CNS, in the assay on OVCAR-4 ovarian, in the assay with KM12 colon, in the assay with OVCAR-8 ovarian and with NCI-H23 lung was greater than 100 µM throughout. The TGI with HCC-2998 colon was greater than 100 µM.
For `O=c1c2ccc(Br)cc2nc(-c2ccccc2)n1NC1OC(CO)C(O)C(O)C1O` (stereo not drawn), the TGI with NCI-H226 lung, with U251 CNS, in the assay on OVCAR-4 ovarian, in the assay on KM12 colon, in the assay on OVCAR-8 ovarian and in the assay on NCI-H23 lung was greater than 100 µM each time. Also, the TGI with HCC-2998 colon is greater than 100 µM.
`COc1ccc(/C=C/c2cnnc3ccccc23)cc1OC`: the TGI in the assay on MDA-MB-231 breast, in the assay on NCI-H226 lung, in the assay on U251 CNS, in the assay on DU-145 prostate, with OVCAR-4 ovarian and in the assay on KM12 colon was greater than 10 µM in each case. In addition, the TGI in the assay on OVCAR-8 ovarian, in the assay with NCI-H23 lung and with HCC-2998 colon was greater than 10 µM each time.
